Consider 1 molecule from patent publication US20060281689A1, “Method for modulating activity of HCV protease through use of a novel HCV protease inhibitor to reduce duration of treatment period” (Schering Corporation, priority 2005, published 2006).

In assay [1] the test system is hepatitis C virus. Nature of the assay: Model of viral dynamics modified with Total ε: theoretical effectiveness rate and viral load over a 48 week treatment period. Also on record: species or system patients. The source says:
The effectiveness of suppression of viral production through treatment in accordance with the methods of the present invention can be calculated through a combination pharmacokinetic and pharmacodynamic analysis with a modified version of the absorption and elimination model described in the art. See Powers K A. et al. (Seminars in Liver Disease, 23 Suppl. 1:13-8, 2003). The absorption and elimination model, which incorporates the Neumann et al. model of viral dynamics, calculates simulated changes in drug concentration and effectiveness of single drug treatment in Equations […], 6, and 7. See Powers K A. et al. (Seminars in Liver Disease, 2003, 23 Suppl. 1:13-8), and Neumann A U, Lam N P, Dahari H, et al. (Science 1998, 282: 103-107). […]
Equation 7 incorporates the effects of a delay between a drug binding to its receptor and beginning its biological action. […] Thus, for t>τ, [formula] the effectiveness rate, ε, of a drug at time, t, is calculated by Equation 7.
For the present invention, the Neumann et al. model of Equation 1 and the absorption and elimination model of Equations 5, 6, and 7, is modified to incorporate calculations for monitoring the effectiveness rate of suppressing viral production by multiple drug treatment through combination therapy with the HCV protease inhibitor and HCV agents including interferon, interferon pegylated, and/or ribavirin. The absorption and elimination model in Equations 5, 6, and 7 is modified by including an effectiveness rate of a combination therapy, Total ε, which is based upon combining the individual efficacy, ε, over time, t, as calculated by Equation 7, for each drug used in the combination therapy of the present invention. The effectiveness rate, Total ε, is calculated with the formula […], where ε(t)Pl is the effectiveness of a HCV protease inhibitor and where ε(t)Ag is the effectiveness of an HCV agent, both independently calculated by Equation 7. […]

The subject of assay [2] is hepatitis C virus. Nature of the assay: Parallel group study in patients afflicted with hepatitis C virus, 14 days, mean viral load (HCV RNA). The class given is in vivo. To be noted: either dose (200 mg or 400 mg three times a day orally) in combination with PEG-Intron 1.5 mcg/kg/week. As for the experimental part:
Preferably, in the practice of the invention, the concentration of HCV-RNA is quantitatively measured by research-based reverse transcriptase polymerase chain reaction (RT-PCR) assay well known to the skilled clinician. Specifically, the Hepatitis C virus (HCV) RNA is measured by extracting total RNA from plasma or serum samples and using an in-house real-time reverse transcriptase polymerase chain reaction (RT-PCR) assay. The amplification target is the 5′-untranslated region (UTR) of the HCV genome. An internal RNA control is added to each sample to assess the efficiency of RNA extraction. Appropriate negative and positive controls are added in each assay run. The assay method has been validated against the WHO International Standard for HCV. HCV RNA amount in a sample is reported as copies of HCV RNA per mL of sample and also as HCV IU per mL of sample. Results for sample at or above 100 copies of HCV RNA per mL are denoted as POS. On the other hand, ND stands for <100 copies of HCV RNA or <29 IU of HCV per mL of sample. […] With respect to quantifying HCV RNA with the rt-PCR methodology referred to herein, one (1) copy of HCV RNA equals 0.29 IU, such that 100 copies of HCV RNA per milliliter of plasma is 29 International Units per milliliter of plasma. […] HCV genotype is determined by sequencing the PCR amplified DNA fragment of the 5′-UTR of the HCV genome. […]

Take `CC(C)(C)NC(=O)N[C@H](C(=O)N1CC2C([C@H]1C(=O)NC(CC1CCC1)C(=O)C(N)=O)C2(C)C)C(C)(C)C` (some centres unmarked) [HCV protease inhibitor]: in assay [1] (200 mg three times a day orally with PEG-Intron 1.5 mcg/kg/week subcutaneously, 48 weeks), the “theoretical effectiveness rate, ε, over time, t” value is 0.989. Further, the “time of treatment until viral load is below 29 IU/ml plasma (100 copies per ml plasma)” value in assay [1] (200 mg three times a day orally with PEG-Intron 1.5 mcg/kg/week subcutaneously, theoretical calculations) is on record as “approximately 14 weeks”. Besides, the “effectiveness rate, ε, over time, t” value in assay [1] (400 mg three times a day orally with PEG-Intron 1.5 mcg/kg/week subcutaneously, 48 weeks) is recorded as 0.997. Besides, the “viral load in the second week of treatment” value in assay [2] is recorded as “continued to decline”. The “decrease in mean viral load at the end of the first week of treatment” value in assay [2] (compared with PEG-Intron alone) is recorded as “much steeper decrease in mean viral load”.
